Laboratory results from US8759308B2, “RNAi probes targeting cancer-related proteins” (The University of British Columbia, priority 2002, dated 2014).
d = 2'-deoxy (DNA); r = 2'-OH (RNA)

Tests used:
[1] = system: IGFBP-5 transcript; experiment: IGFBP-5 transcript by RT-PCR in PC3 cells; format: cell-based, human; settings: 10, 50 and 100 nM
Description: PC3 cells were transfected with various doses (10, 50 and 100 nM) of the 3 species of bispecies siRNA (BS-1, BS-2 and BS-3) or scrambled control. A vehicle only control was also evaluated. Total. RNA was extracted and analyzed by RT-PCR for IGFBP-5 transcript.

[2] = system: IGFBP-5 transcript; experiment: IGFBP-5 transcript by RT-PCR in primary human bone fibroblasts; format: cell-based; settings: 50 nM
Description: Primary human bone fibroblasts were transfected with 50 nM of the 3 species of bispecific siRNA (BS-1, BS-2 and BS-3) or scrambled control. A vehicle only and an untreated control were was also evaluated. Total RNA was extracted and analyzed by RT-PCR for IGFBP-5 transcript.

[3] = system: clusterin transcript; experiment: Clusterin transcript by Real Time PCR in A549 cells; format: cell-based, human; settings: 10, 50 or 100 nM, two days
Description: (§1) PC3 cells were transfected with siRNA at levels of 10, 50 or 100 nM or with 100 nM scrambled control. Two days after transfection, total RNA was extracted and the level of clusterin transcript was quantified by Real Time PCR.
The experiment of Example 9 was repeated using A549 cells in place of PC3 cells.

[4] = system: clusterin transcript; experiment: Clusterin transcript by Real Time PCR in PC3 cells; format: cell-based, human; settings: 10, 50 or 100 nM, two days
Description: as §1

[5] = system: clusterin transcript; experiment: Clusterin transcript by Northern blot in PC3 cells; format: cell-based, human; settings: all doses (10, 50 or 100 nM), two days
Description: PC3 cells were treated (1 pulse) with CLU-3 (Seq ID NOs. 5 and 6) or CLU-5 (Seq ID Nos 9 and 10) or with a scrambled control at levels of 10, 50 or 100 nM, or with oligoFECTAMINE™ only. After two days total RNA was extracted and analyzed for clusterin and GADPH by Northern blotting. Densitometric measurement was performed. FIG. 10 presents results of these measurements after normalization to GADPH.

[6] = system: PC3 cells; experiment: PC3 cell viability with siRNA and Taxol, MTT assay; format: cell-based, human; settings: 25 nM siRNA, then Taxol three days
Description: PC3 cells were treated once with 25 nM human clusterin siRNAs (CLU-3 and CLU-5), a scrambled control, or oligoFECTAMINE™ only. After two days of treatment, the medium was replaced with medium containing various concentrations of Taxol (Paclitaxel). After three days of incubation, cell viability was determined by MTT assay. FIG. 11 summarizes the results.

[7] = system: CLU protein; experiment: CLU gene silencing by siRNA in OS cells (immunoblotting); format: cell-based, human; settings: for CLU protein accumulation following exposure to DXR: KH OS and U-2 OS cells, DXR for 24 h in presence of siRNA; for knock-down of secreted CLU (s-CLU) protein form: OS cells; for cellular CLU protein levels / CLU gene silencing: three OS cell lines, 100 nM siRNA duplex, 2-3 days
Description: The human clusterin cDNA was manually scanned in order to identify sequences of the AA(N19)UU (N, any nucleotide) type that fulfill the required criteria for siRNA (Harbourth et al., J Cell Sci 114: 4557-4560 (2001)). Two such sequences with symmetric 2-nt 3′ overhangs, were found 433 (Cl-I) and 644 (Cl-II) nts downstream of the CLU gene transcription initiation codon. Two additional oligonucleotides used targeted a region 1620 nts downstream of the CLU gene transcription initiation codon (Cl-III) and the human CLU transcription initiation site (Cl-V) (see Table). […] Selected RNA oligos were synthesized by Dharmacon Research, Inc. (Lafayette, Colo.), diluted at a 20 μM final concentration in RNasefree ddH2O and stored at −20° C. The Scramble-I™ (Sc-I) (D-1200-20) and Scramble-II™ (Sc-II) (D-1205-20) oligonucleotides used were purchased from Dharmacon Research, Inc.
siRNA transfection of the Cl-I, Cl-II and scrambled RNA duplexes in exponentiary growing OS cells was performed as described (Harbourth et al., Tuschl et al., Genes Dev. 13: 3191-3197 (1999)). Briefly, cells were seeded the day before siRNA transfection in 24-well plates containing 500 μl complete medium and were ˜40-50% confluent during transfection. For the transfection mixture 100 nM of siRNA duplex per well were used. The RNA duplex was diluted in Opti-MEM® I (Gibco Life Technologies, Inc., San Diego, Calif.) serum free medium and transfection efficiency was enhanced by using the Oligofectamine™ reagent (Invitrogen Life technologies Inc., San Diego, Calif.). When cells were treated with both Cl-i and Cl-II oligonucleotides, 100 nM of each siRNA duplex were used. Cell treatment with the siRNA oligonucleotides lasted for 2-3 days.
(§2) Alternatively, in PC3 cells Lipofectin™ (Invitrogen Life technologies Inc., San Diego, Calif.) was used to enhance transfection with the Cl-III and CL-V oligonucleotides. PC3 cells were treated with 10, 50, or 100 nM of the RNA duplexes after pre-incubation with 4 μg/ml of […] reagent in serum free OptiMEM® I for 20 minutes. Four hours after starting the incubation, the medium containing the RNA duplexes and Lipofectin was replaced with standard tissue culture medium. Cells were treated once on day 1 and then harvested 48 h after treatment on day 3. In all cases controls used included: (a) the usage of the Sc-I and Sc-II RNA duplexes and (b) mock transfections in the absence of a nucleic acid (Con-I). CLU gene silencing was assayed by RNA blot analysis, immunoblotting analysis or confocal immunofluorescence.
Efficient silencing of the CLU gene expression in OS cells is achieved using siRNA.

[8] = system: 49 kDa c-CLU protein form; experiment: Expression of c-CLU protein form after siRNA; format: cell-based, human; settings: KH OS and U-2 OS cells
Description: (§3) OS cells sensitization to genotoxic and oxidative stress due to CLU gene silencing is related to activation of the cellular apoptotic machinery. […] We assume that the explanation of this effect relies on our observation that the n-CLU protein is extremely stable.

[9] = system: 55 kDa n-CLU protein form; experiment: Expression of n-CLU protein form after siRNA; format: cell-based, human; settings: KH OS and U-2 OS cells
Description: as §3

[10] = system: CLU mRNA and protein; experiment: CLU gene silencing by siRNA in PC3 cells (RNA blot, immunoblot); format: cell-based, human; settings: sequence-dependent but dose-independent
Description: as §2
Effects of CLU gene silencing in PC-3 prostate cancer cells were determined. Having established the significant effects of CLU knock down in OS cells, we then applied CLU siRNA in PC3 human prostate cancer cells. PC3 cells are p53 null (Rohlff, et al., Prostate 37: 51-59 (1998)) and express relatively low endogenous amount of the s-CLU protein form similar to the Sa OS cells. In PC3 cells, apart from employing the Cl-I and Cl-II oligonucleotides, we also tested two additional CLU-specific siRNA oligonucleotides (Cl-III, Cl-V). […]

BS-1: IGFBP-2 and -5 bispecific siRNA, double-stranded RNA from Seq. ID NOs. 39 and 40 (chain 1 GGAGCCGGGCUGCGGCUGCTT; chain 2 GCAGCCGCAGCCCGGCUCCTT; sugars from the 5' end r19 d2, backbone not given here)
amount of IGFBP-5 transcript [1]: reduction in the amount of IGFBP-5 transcript | amount of IGFBP-5 transcript [2]: reduction in the amount of IGFBP-5 transcript

BS-2: IGFBP-2 and -5 bispecific siRNA, double-stranded RNA from Seq. ID NOs. 41 and 42 (chain 1 CGUGCGGCGUCUACACCTT; chain 2 GGUGUAGACGCCGCACGTT; sugars from the 5' end r17 d2, backbone not given here)
amount of IGFBP-5 transcript [1]: reduction in the amount of IGFBP-5 transcript | amount of IGFBP-5 transcript [2]: reduction in the amount of IGFBP-5 transcript

BS-3: IGFBP-2 and -5 bispecific siRNA, double-stranded RNA from Seq. ID NOs. 43 and 44 (chain 1 CCAGGGGCUGCGCUGCTT; chain 2 GCAGCGCAGCCCCUGGTT; sugars from the 5' end r16 d2, backbone not given here)
amount of IGFBP-5 transcript [1]: reduction in the amount of IGFBP-5 transcript | amount of IGFBP-5 transcript [2]: reduction in the amount of IGFBP-5 transcript

CLU1: clusterin siRNA, double-stranded RNA from Seq. ID NOs. 1 and 2 (chain 1 CCAGAGCUCGCCCUUCUACTT; chain 2 GUAGAAGGGCGAGCUCUGGTT; sugars from the 5' end r19 d2, backbone not given here)
amount of clusterin transcript [3]: reduction in the amount of clusterin transcript | amount of clusterin transcript [4]: reduction in the amount of clusterin transcript

CLU3: clusterin siRNA, double-stranded RNA from Seq. ID NOs. 5 and 6 (chain 1 CUAAUUCAAUAAAACUGUCTT; chain 2 GACAGUUUUAUUGAAUUAGTT; sugars from the 5' end r19 d2, backbone not given here)
amount of clusterin transcript normalized to GADPH [5]: Reduction in the amount of clusterin transcript | viable cells with siRNA plus Taxol [6]: worked in synergy | amount of clusterin transcript [3]: reduction in the amount of clusterin transcript | amount of clusterin transcript [4]: reduction in the amount of clusterin transcript

Cl-I: clusterin siRNA duplex, SEQ. ID No: 58 and 59; target 433 nts downstream of CLU transcription initiation codon (chain 1 CCAGAGCUCGCCCUUCUACTT; chain 2 GUAGAAGGGCGAGCUCUGGTT; sugars from the 5' end r19 d2, backbone not given here)
CLU protein accumulation following exposure to DXR [7]: effectively abolished | effectiveness in silencing the CLU gene, Cl-I compared with Cl-II ([7]; OS cell lines): slightly more effective than Cl-II | knock-down of secreted CLU (s-CLU) protein form [7]: specifically knock-down | cellular CLU protein levels / CLU gene silencing [7]: knocking down significantly | effect on 49 kDa c-CLU protein form level [8]: minor effect | effect on putative 55 kDa n-CLU protein form [9]: did not exert any significant effect

Cl-II: clusterin siRNA duplex, SEQ. ID No: 61 and 62; target 644 nts downstream of CLU transcription initiation codon (chain 1 GUCCCGCAUCGUCCGCAGCTT; chain 2 GCUGCGGACGAUGCGGGACTT; sugars from the 5' end r19 d2, backbone not given here)
CLU protein accumulation following exposure to DXR [7]: effectively abolished | knock-down of secreted CLU (s-CLU) protein form [7]: specifically knock-down | cellular CLU protein levels / CLU gene silencing [7]: knocking down significantly | effect on 49 kDa c-CLU protein form level [8]: minor effect | effect on putative 55 kDa n-CLU protein form [9]: did not exert any significant effect

Cl-III: clusterin siRNA duplex, SEQ. ID No: 64 and 65; targets region 1620 nts downstream of initiation codon (chain 1 CUAAUUCAAUAAAACUGUCTT; chain 2 GACAGUUUUAUUGAAUUAGTT; sugars from the 5' end r19 d2, backbone not given here)
silencing CLU RNA and protein expression [10]: quite effective

Cl-V: clusterin siRNA duplex targeting the human CLU transcription initiation site; Table 7 Cl-IV, SEQ. ID No: 67 and 68 (chain 1 AUGAUGAAGACUCUGCUGC; chain 2 GCAGCAGAGUCUUCAUCAU; RNA, backbone not given here) [clusterin siRNA duplex targeting the human CLU transcription initiation site; ID No: 67 and 68]
silencing CLU RNA and protein expression [10]: quite effective
